Assay results from the Kinase Knowledgebase extract (Sharma et al. 2016).
pIC50: −log10 of the molar value.

Biological target: ROCK2 (human) (UniProt O75116)
Test: Assessment of ROCK2 Kinase Activity

ROCK2 (human), sequence (O75116 whole entry, looked up): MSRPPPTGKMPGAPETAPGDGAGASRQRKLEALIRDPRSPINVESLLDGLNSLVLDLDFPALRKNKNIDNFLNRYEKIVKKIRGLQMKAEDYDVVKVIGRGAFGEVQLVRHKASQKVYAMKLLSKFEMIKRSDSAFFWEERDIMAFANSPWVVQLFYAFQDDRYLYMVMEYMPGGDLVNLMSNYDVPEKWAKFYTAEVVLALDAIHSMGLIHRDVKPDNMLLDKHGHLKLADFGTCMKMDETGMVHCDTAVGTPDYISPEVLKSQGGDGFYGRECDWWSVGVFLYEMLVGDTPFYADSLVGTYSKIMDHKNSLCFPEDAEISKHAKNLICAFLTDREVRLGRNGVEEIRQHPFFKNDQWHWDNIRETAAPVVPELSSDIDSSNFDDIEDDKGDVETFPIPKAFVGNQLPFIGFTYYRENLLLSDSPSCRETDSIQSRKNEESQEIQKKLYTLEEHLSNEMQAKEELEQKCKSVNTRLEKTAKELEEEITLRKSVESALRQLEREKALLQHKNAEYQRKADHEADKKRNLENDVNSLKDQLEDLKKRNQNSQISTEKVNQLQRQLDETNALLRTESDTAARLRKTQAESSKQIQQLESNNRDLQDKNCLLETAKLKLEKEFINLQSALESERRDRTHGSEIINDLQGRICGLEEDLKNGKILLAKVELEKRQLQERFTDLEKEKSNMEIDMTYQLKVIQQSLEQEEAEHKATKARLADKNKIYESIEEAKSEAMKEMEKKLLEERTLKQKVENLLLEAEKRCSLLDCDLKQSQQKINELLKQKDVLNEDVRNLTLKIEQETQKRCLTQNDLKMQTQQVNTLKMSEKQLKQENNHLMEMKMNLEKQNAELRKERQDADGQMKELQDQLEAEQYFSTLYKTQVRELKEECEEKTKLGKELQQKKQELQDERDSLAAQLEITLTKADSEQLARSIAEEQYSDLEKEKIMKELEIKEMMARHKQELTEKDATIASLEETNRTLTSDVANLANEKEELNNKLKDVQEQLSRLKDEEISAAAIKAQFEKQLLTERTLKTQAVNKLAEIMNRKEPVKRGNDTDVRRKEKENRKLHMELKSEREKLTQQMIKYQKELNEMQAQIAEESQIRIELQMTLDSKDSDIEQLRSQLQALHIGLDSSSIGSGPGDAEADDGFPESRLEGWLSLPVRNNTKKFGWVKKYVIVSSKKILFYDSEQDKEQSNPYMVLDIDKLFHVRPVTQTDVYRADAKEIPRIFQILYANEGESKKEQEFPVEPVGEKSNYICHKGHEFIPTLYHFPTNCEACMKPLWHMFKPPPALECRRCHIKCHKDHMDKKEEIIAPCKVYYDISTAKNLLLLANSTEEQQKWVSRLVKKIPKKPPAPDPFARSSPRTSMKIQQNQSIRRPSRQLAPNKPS

Row | Structure (SMILES) | pIC50
1 | O=c1[nH]ccc2cc(O[C@@H]3CCN(Cc4ccccc4)C3)c(Cl)cc12 | ≥ 6.00
2 | NCC(=O)N1CCC(Oc2ccc3c(=O)[nH]ccc3c2)CC1 | ≥ 6.00
3 | O=C([C@@H]1CCCN1)N1CCC(Oc2cc3cc[nH]c(=O)c3cc2Cl)CC1 | ≥ 6.00
4 | Cc1cc2c(=O)[nH]ccc2cc1OC[C@@H]1CCNC1 | ≥ 6.00
5 | N[C@@H](Cc1ccc(Cl)cc1)C(=O)N1CCC(Oc2cc3cc[nH]c(=O)c3cc2Cl)CC1 | ≥ 6.00

Other lines, results leading:

Row | pIC50 | Structure (SMILES)
6 | ≥ 6.00 | O=c1[nH]ccc2cc(OC3CNC3)c(Cl)cc12
7 | ≥ 6.00 | O=c1[nH]ccc2cc(OC3CCCNCC3)c(Cl)cc12 (configuration not stated)
8 | ≥ 6.00 | CCCNC(=O)CN1CCC(Oc2cc3cc[nH]c(=O)c3cc2Cl)CC1
9 | ≥ 6.00 | Cc1cc2c(=O)[nH]ccc2cc1OC1CCCNCC1 (configuration not stated)
10 | ≥ 6.00 | Cc1cc2c(=O)[nH]ccc2cc1O[C@H]1CCNC1
11 | ≥ 6.00 | CN(C)CC(=O)N1CCC(Oc2cc3cc[nH]c(=O)c3cc2Cl)CC1
12 | ≥ 6.00 | C[C@@H](N)C(=O)N1CCC(Oc2cc3cc[nH]c(=O)c3cc2Cl)CC1
